Measured values: patent US20160040126A1, “REGULATION OF DIFFERENTIATION INTO DOPAMINERGIC NEURONS BY METALLOPROTEASE” (Korea University Research and Business Foundation, priority 2012, published 2016)

What was measured:
[1] = test system: midbrain neurons derived from normal mice and D2R−/− mice; assay: Differentiation of midbrain neurons into dopaminergic neural cells (TH immunostaining: number of TH-positive cells, neurite length, neurite number); format: cell-based; conditions: for effect of the agent on the development of dopaminergic neural cells by EGF+quinpirole: co-treatment with EGF+quinpirole, normal mice and D2R−/− mice; for effect of the agent on the differentiation/development of dopaminergic neural cells by EGF: co-treatment with EGF, or siRNA knockdown before EGF
Protocol: Midbrain neurons derived from normal mice and D2R−/− mice were treated with each of EGF, EGF+haloperidol, EGF+AG1478 and EGF+PD98059, and then stained with TH by an immunostaining technique. Then, the number of TH-positive cells, the length of neurites and the number of neurites in the midbrain neurons were compared between EGF, EGF+haloperidol, EGF+AG1478 and EGF+PD98059 to determine the abilities to induce differentiation into dopaminergic neural cells.
Then, the number of TH-positive cells, the length of neurites and the number of neurites in the midbrain neurons were compared to determine the abilities to induce differentiation into dopaminergic neural cells.

ERK = assay: Phosphorylation of ERK in midbrain neurons; format: cell-based, mice; conditions: for effect of the agent on the phosphorylation of ERK by quinpirole: co-treatment with quinpirole, or siRNA knockdown before quinpirole; for effect of the agent on the phosphorylation of ERK by EGF: co-treatment with EGF

Compound | effect of the agent on the development of dopaminergic neural cells by EGF+quinpirole [1] | effect of the agent on the differentiation/development of dopaminergic neural cells by EGF ([1]; midbrain neurons) | effect of the agent on the phosphorylation of ERK by quinpirole (ERK) | effect of the agent on the development of dopaminergic neural cells by quinpirole ([1]; co-treatment with quinpirole, or siRNA knockdown before quinpirole, midbrain neurons) | effect of the agent on the phosphorylation of ERK by EGF (ERK) | differentiation of dopaminergic neural cells from midbrain neurons ([1]; treated with the agent alone, normal mouse and D2R−/− mouse midbrain neurons, TH immunostaining) | phosphorylation of ERK by the agent (ERK; compared to that in the control)
COc1cc2ncnc(Nc3cccc(Cl)c3)c2cc1OC [AG1478] | inhibited to the basal level | completely blocked | inhibited | – | – | – | –
CNC(=O)[C@H](Cc1c[nH]c2ccccc12)NC(=O)[C@H](CC(=O)NO)CC(C)C [GM6001, (2S)—N4-hydroxy-N1-[(1S)-1-(1H-indol-3-ylmethyl)-2-(methylamino)-2-oxoethyl]-2-isobutylsuccinamide] | – | not inhibited | inhibited to the basal level | inhibited | not influenced | – | –
COc1cccc(-c2cc(=O)c3ccccc3o2)c1N [PD98059] | – | completely blocked | – | – | – | – | –
O=C(CCCN1CCC(O)(c2ccc(Cl)cc2)CC1)c1ccc(F)cc1 [haloperidol] | not inhibited | not blocked | – | – | not inhibited | – | –
EGF: epidermal growth factor (NSDSECPLSHDGYCLHDGVCMYIEALDKYACNCVVGYIGERCQYRDLKWWELR; Epidermal growth factor; UniProt P01133 971-1023, looked up) | – | – | – | – | – | promoted | 417%
